Results taken from patent US10988477B2 (Merck Patent GmbH, priority 2018, dated 2021).

Target: GCN2 kinase (Homo sapiens, UniProt Q9P2K8)
Assay: GCN2 enzyme inhibition assay (Transcreener ADP2 fluorescence polarization)
Format: biochemical
Conditions: 280 μM ATP
Outline: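 Kinase activity is followed as ADP formation, measured by fluorescence polarization, using 4 nM enzyme with 280 μM ATP and 200 μM (RS)7 peptide at pH 7.5 and 25 °C for 1 h. Values come from a non-linear tight-binding fit.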

[1] = compounds of Formula II, 4 nM GCN2 kinase
[2] = compounds of Formula III, 4 nM GCN2 kinase
[3] = Enzyme activity for compounds of Formula IV, Ki(app), 25° C.

Chain of GCN2 kinase (Q9P2K8 whole entry): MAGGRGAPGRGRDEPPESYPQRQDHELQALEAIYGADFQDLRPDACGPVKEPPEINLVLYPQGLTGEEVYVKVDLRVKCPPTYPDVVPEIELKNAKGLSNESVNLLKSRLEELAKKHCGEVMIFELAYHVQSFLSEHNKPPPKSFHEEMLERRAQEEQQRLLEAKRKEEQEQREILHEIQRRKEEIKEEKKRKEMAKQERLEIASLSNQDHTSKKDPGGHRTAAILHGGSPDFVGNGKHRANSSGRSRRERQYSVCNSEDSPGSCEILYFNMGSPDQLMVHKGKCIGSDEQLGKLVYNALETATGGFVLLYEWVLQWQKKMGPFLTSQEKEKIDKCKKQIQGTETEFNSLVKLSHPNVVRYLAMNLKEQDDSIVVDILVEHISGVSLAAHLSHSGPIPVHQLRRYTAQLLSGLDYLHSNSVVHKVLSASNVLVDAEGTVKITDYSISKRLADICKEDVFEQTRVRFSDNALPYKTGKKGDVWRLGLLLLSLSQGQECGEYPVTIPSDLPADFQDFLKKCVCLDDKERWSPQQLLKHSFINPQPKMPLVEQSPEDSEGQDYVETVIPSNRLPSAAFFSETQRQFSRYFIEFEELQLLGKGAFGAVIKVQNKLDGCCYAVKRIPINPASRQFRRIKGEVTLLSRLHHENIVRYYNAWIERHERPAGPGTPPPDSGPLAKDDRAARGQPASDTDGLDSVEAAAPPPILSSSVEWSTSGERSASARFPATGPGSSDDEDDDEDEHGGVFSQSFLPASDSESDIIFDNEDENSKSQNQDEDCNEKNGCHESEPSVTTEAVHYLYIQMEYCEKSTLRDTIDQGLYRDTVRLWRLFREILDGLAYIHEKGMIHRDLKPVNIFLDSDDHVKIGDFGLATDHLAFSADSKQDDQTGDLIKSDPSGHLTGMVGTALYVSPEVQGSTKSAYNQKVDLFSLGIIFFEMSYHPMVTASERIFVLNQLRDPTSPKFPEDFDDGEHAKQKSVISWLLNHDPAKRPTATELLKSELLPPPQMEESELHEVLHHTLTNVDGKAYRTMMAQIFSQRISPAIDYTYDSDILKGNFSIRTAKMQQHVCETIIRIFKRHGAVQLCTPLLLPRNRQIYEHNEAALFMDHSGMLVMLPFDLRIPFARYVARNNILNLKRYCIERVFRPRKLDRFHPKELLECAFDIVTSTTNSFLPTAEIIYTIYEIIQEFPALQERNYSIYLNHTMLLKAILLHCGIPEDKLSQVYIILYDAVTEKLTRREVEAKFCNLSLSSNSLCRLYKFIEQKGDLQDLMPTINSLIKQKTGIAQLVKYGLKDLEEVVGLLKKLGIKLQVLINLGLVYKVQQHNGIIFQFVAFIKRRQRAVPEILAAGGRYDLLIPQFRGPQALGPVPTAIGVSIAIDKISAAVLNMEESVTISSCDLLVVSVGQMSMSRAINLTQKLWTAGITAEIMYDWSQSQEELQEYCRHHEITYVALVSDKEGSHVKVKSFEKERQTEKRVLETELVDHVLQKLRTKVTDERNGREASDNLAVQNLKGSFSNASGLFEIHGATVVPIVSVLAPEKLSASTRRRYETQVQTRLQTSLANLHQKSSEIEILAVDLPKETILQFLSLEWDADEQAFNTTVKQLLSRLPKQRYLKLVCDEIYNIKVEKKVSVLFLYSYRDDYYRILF

Row | Ki [3] | SMILES | also measured
1 |  | FC(F)c1ccc2ncc(-c3ccnc(N4CCCC(c5cn[nH]c5)C4)c3)n2n1 (stereo not shown) [II-750] | Ki [1]: < 0.01 µM
2 |  | C[C@H]1[C@H](CNS(C)(=O)=O)CCCN1c1cc(-c2cnc3ccc(C(F)F)nn23)ncn1 [II-756, N-(((2S,3S)-1-(6-(6-(difluoromethyl)imidazo[1,2-b]pyridazin-3-yl)pyrimidin-4-yl)-2-methylpiperidin-3-yl)methyl)methanesulfonamide] | IC50 [1]: > 1 µM
3 |  | Cc1nn(C)cc1[C@H]1CN(c2cc(-c3cnc4ccc(C(F)(F)F)nn34)ncn2)C[C@H](C)O1 [II-758, (2S,6S)-2-(1,3-dimethyl-1H-pyrazol-4-yl)-6-methyl-4-(6-(6-(trifluoromethyl)imidazo[1,2-b]pyridazin-3-yl)pyrimidin-4-yl)morpholine] | IC50 [1]: > 1 µM
4 |  | C[C@@H]1C[C@H](N=S(C)(C)=O)CN(c2cc(-c3cnc4ccc(N5CC(F)C5)nn34)ncn2)C1 [II-764, (((3S,5R)-1-(6-(6-(3-fluoroazetidin-1-yl)imidazo[1,2-b]pyridazin-3-yl)pyrimidin-4-yl)-5-methylpiperidin-3-yl)imino)dimethyl-16-sulfanone] | IC50 [1]: 0.01 to 1 µM
5 |  | CC1C(CNS(C)(=O)=O)C(F)(F)C(C)CN1c1cc(-c2cnn3ccc(C(F)F)nc23)ncn1 (stereo not shown) [III-13, N-[[1-[6-[5-(Difluoromethyl)pyrazolo[1,5-a]pyrimidin-3-yl]pyrimidin-4-yl]-4,4-difluoro-2,5-dimethyl-3-piperidyl]methyl]methanesulfonamide] | Ki [2]: < 0.01 µM
6 |  | CC1CC(N=S(C)(C)=O)CN(c2cc(-c3cnn4ccc(C(F)F)nc34)ncn2)C1 (stereo not shown) [III-14, [1-[6-[5-(Difluoromethyl)pyrazolo[1,5-a]pyrimidin-3-yl]pyrimidin-4-yl]-5-methyl-3-piperidyl]imino-dimethyl-oxo-6-sulfane] | Ki [2]: 0.01 to 1 µM
7 |  | c1ccc(-c2cc(-c3cnn4cccnc34)ccn2)cc1 [III-15, 3-(2-phenylpyridin-4-yl)pyrazolo[1,5-a]pyrimidine] | Ki [2]: > 1 µM
8 | 0.1 to 1 µM | c1cc(-c2ccc3cc[nH]c3c2)nc(-c2cnc3cnccn23)c1 [IV-1, 3-(6-(1H-Indol-6-yl)pyridin-2-yl)imidazo[1,2-a]pyrazine] | 
9 | 0.1 to 1 µM | CC(=O)N1CCN(c2ccnc(-c3cnc4cnc(C#N)cn34)n2)CC1 [IV-31, 3-(4-(4-Acetylpiperazin-1-yl)pyrimidin-2-yl)imidazo[1,2-a]pyrazine-6-carbonitrile] | 
10 | 0.1 to 1 µM | Cc1cn2c(-c3nccc(N4CCO[C@H](CNS(C)(=O)=O)C4)n3)cnc2cn1 [IV-47, (S)—N-((4-(2-(6-Methylimidazo[1,2-a]pyrazin-3-yl)pyrimidin-4-yl)morpholin-2-yl)methyl)methanesulfonamide] | 
11 | 0.1 to 1 µM | CS(=O)(=O)NCC1CCN(c2ccnc(-c3cnc4cnc(C(F)F)cn34)n2)C1 (stereo not shown) [IV-66, N-((1-(2-(6-(Difluoromethyl)imidazo[1,2-a]pyrazin-3-yl)pyrimidin-4-yl)pyrrolidin-3-yl)methyl)methanesulfonamide] | 
12 | 0.1 to 1 µM | CS(=N)(=O)c1cccc(-c2ccnc(-c3cnc4cnc(C(F)F)cn34)n2)c1 (stereo not shown) [IV-79, (3-(2-(6-(difluoromethyl)imidazo[1,2-a]pyrazin-3-yl)pyrimidin-4-yl)phenyl)(imino)(methyl)-λ^6-sulfanone] | 
13 | 0.1 to 1 µM | [O-][S+]1CCN(c2ccnc(-c3cnc4cnc(C(F)F)cn34)n2)CC1 [IV-80, 4-(2-(6-(Difluoromethyl)imidazo[1,2-a]pyrazin-3-yl)pyrimidin-4-yl)thiomorpholine 1-oxide] | 
14 | 0.1 to 1 µM | O=S1(=O)CCN(c2ccnc(-c3cnc4cnc(C(F)F)cn34)n2)CC1 [IV-84, 4-(2-(6-(Difluoromethyl)imidazo[1,2-a]pyrazin-3-yl)pyrimidin-4-yl)thiomorpholine 1,1-dioxide] | 
15 | 0.1 to 1 µM | CC1C(NS(C)(=O)=O)CCCN1c1ccnc(-c2cnc3cnc(C(F)F)cn23)n1 (stereo not shown) [IV-127, N-(1-(2-(6-(Difluoromethyl)imidazo[1,2-a]pyrazin-3-yl)pyrimidin-4-yl)-2-methylpiperidin-3-yl)methanesulfonamide] | 
16 | 0.1 to 1 µM | CC(C)(C)OC(=O)N1CCC2(CC1)CCN(c1ccnc(-c3cnc4cnc(C(F)F)cn34)n1)C2 [IV-133, tert-Butyl 2-(2-(6-(difluoromethyl)imidazo[1,2-a]pyrazin-3-yl)pyrimidin-4-yl)-2,8-diazaspiro[4.5]decane-8-carboxylate] | 
17 | 0.1 to 1 µM | FC(F)c1cn2c(-c3nccc(-c4cccc(N5CCNCC5)n4)n3)cnc2cn1 [IV-149, 6-(Difluoromethyl)-3-(4-(6-(piperazin-1-yl)pyridin-2-yl)pyrimidin-2-yl)imidazo[1,2-a]pyrazine] | 
18 | 0.1 to 1 µM | CS(=O)(=O)N1CCN(c2cccc(-c3ccnc(-c4cnc5cnc(C(F)F)cn45)n3)n2)CC1 [IV-151, 6-(Difluoromethyl)-3-(4-(6-(4-(methylsulfonyl)piperazin-1-yl)pyridin-2-yl)pyrimidin-2-yl)imidazo[1,2-a]pyrazine] | 
19 | 0.1 to 1 µM | FC(F)c1cn2c(-c3nccc(-c4cnn(C5CCOC5)c4)n3)cnc2cn1 (stereo not shown) [IV-153, 6-(Difluoromethyl)-3-(4-(1-(tetrahydrofuran-3-yl)-1H-pyrazol-4-yl)pyrimidin-2-yl)imidazo[1,2-a]pyrazine] | 
20 | 0.1 to 1 µM | Cn1ccc2cc(-c3ccnc(-c4cnc5cnc(C(F)F)cn45)n3)ccc21 [IV-158, 6-(Difluoromethyl)-3-(4-(1-methyl-1H-indol-5-yl)pyrimidin-2-yl)imidazo[1,2-a]pyrazine] | 
21 | 0.1 to 1 µM | FC(F)c1cn2c(-c3nccc(C4=CCCC4)n3)cnc2cn1 [IV-163, 3-(4-(Cyclopent-1-en-1-yl)pyrimidin-2-yl)-6-(difluoromethyl)imidazo[1,2-a]pyrazine] | 
22 | 0.1 to 1 µM | CS(=O)(=O)NCC(=O)Nc1cccc(-c2ccnc(-c3cnc4cnc(C(F)F)cn34)n2)c1 [IV-173, N-(3-(2-(6-(Difluoromethyl)imidazo[1,2-a]pyrazin-3-yl)pyrimidin-4-yl)phenyl)-2-(methylsulfonamido)acetamide] | 
23 | 0.01 to 0.1 µM | CC1CCCN(c2ccnc(-c3cnc4cnc(C(N)=O)cn34)n2)C1 (stereo not shown) [IV-187, 3-(4-(3-Methylpiperidin-1-yl)pyrimidin-2-yl)imidazo[1,2-a]pyrazine-6-carboxamide] | 
24 | 0.1 to 1 µM | CC(=O)N1CCN(c2nc(C)cc(-c3cnc4cnc(C(N)=O)cn34)n2)CC1 [IV-188, 3-(2-(4-Acetylpiperazin-1-yl)-6-methylpyrimidin-4-yl)imidazo[1,2-a]pyrazine-6-carboxamide] | 
25 | 0.1 to 1 µM | CC(=O)N1CCCN(c2ccnc(-c3cnc4cnc(C(N)=O)cn34)n2)CC1 [IV-190, 3-(4-(4-Acetyl-1,4-diazepan-1-yl)pyrimidin-2-yl)imidazo[1,2-a]pyrazine-6-carboxamide] | 
26 | 0.01 to 0.1 µM | Cc1cc(N2CCN(C(N)=O)CC2)nc(-c2cnc3cnc(C(N)=O)cn23)n1 [IV-196, 3-(4-(4-Carbamoylpiperazin-1-yl)-6-methylpyrimidin-2-yl)imidazo[1,2-a]pyrazine-6-carboxamide] | 
27 | 0.01 to 0.1 µM | CC(=O)N1CCN(c2ccnc(-c3cnc4cnc(-c5cc[nH]n5)cn34)n2)CC1 [IV-203, 1-(4-(2-(6-(1H-Pyrazol-3-yl)imidazo[1,2-a]pyrazin-3-yl)pyrimidin-4-yl)piperazin-1-yl)ethan-1-one] | 
28 | 0.01 to 0.1 µM | CC1CCCN(c2cccc(-c3cnc4cnc(C(N)=O)cn34)n2)C1 (stereo not shown) [IV-205, 3-(6-(3-Methylpiperidin-1-yl)pyridin-2-yl)imidazo[1,2-a]pyrazine-6-carboxamide] | 
